From patent publication US9428759B2, “Methods for increasing the production of phenolic compounds from Theobroma cacao” (Casa Luker S.A., priority 2012, dated 2016) come the findings set out here.

The test relates to cocoa callus. The test is described as follows: Induction of cocoa callus development with 2,4-D and chitosan. The class given is cell-based, Theobroma cacao. The text has this:
After surface sterilization, seeds (grains) were subjected to induction of calluses in specific media for tissue cultures as follows (see Murashige, T. and Skoog, F. “A revised medium for rapid growth and bioassays with tobacco tissue cultures,” Physiologia Plantarum, 1962, Vol 15: 473-495). Disinfected cocoa seeds were submitted to extraction of embryonic cells under aseptic conditions, and transferred to growth medium (MS), which contains mineral salts and microelements, and which is enriched with myo-inositol (100 mg/L) and sucrose (30 g/L), with gellan gum (2.4 g/L) as a gelling agent. The cocoa explants were incubated under dark conditions for 7 days at 22-24° C. After the incubation period, the cocoa embryonic cells were subcultured in nutrient media with the same types of ingredients as the media mentioned above, but containing different concentrations of auxins (growth hormones 2,4-D), using […] (0, 0.1, 0.5, 1.0 and 2.0 mg/L). […]
Different concentrations including 0, 0.1, 0.2, 0.5, 1, 2, 4, mg/L of kinetin were evaluated. Also, kinetin was used with or without 2,4-D at concentration of 2 mg/L. The growth of calluses was evaluated after 100 days, and different parameters were used to determine the effects of the growth regulators on callus growth including % of disaggregation and height and diameter of the callus. […]

Regarding `O=C(O)COc1ccc(Cl)cc1Cl` [2,4 D, 2,4-dichlorophenoxyacetic acid], the “growth in cocoa calluses” value (2 mg/L, all three cocoa phenotypes, early stages of development) is listed as “induced larger growth”. For the same compound, for the setting “2,4-D 2 mgL^−1, initial callus development, three cocoa phenotypes”, the “% of Callus Development” value came out at 22.9167%.
